Source: ChEMBL document CHEMBL3425473, “Synthesis and biological evaluation of boswellic acid-NSAID hybrid molecules as anti-inflammatory and anti-arthritic agents” (Eur J Med Chem, 2015)
Activity calls are given as the source filed them. The rule behind the calls is not given here.

Columns and labels:
Rattus norvegicus [1] = test: In vivo inhibition of COX-2 activity in Complete Freund's adjuvant-induced arthritic albino Wistar rat serum assessed as decrease in peroxidase activity measured as TMPD oxidation rate at 10 mg/kg administered via gavage daily started from day 7 and continued till day 21 after CFA injection by colorimetric analysis; type: functional, organism-based; design: dose 10 mg/kg
Rattus norvegicus [2] = test: Reduction in neutrophil infiltration in Complete Freund's adjuvant-induced arthritic albino Wistar rat ankle joint at 10 mg/kg administered via gavage daily started from day 7 and continued till day 21 after CFA injection by hematoxylin-eosin staining based microscopic analysis; type: functional, organism-based; design: dose 10 mg/kg
[3] = Cytotoxicity against human SW982 cells after 24 hrs by MTT assay; type: cell-based; details: read-out: LD50
SW982 = test: Inhibition of IL-1 beta-induced LOX activity in human SW982 cells assessed as enzyme activity at LD50 treated for 24 hrs prior to incubation with IL-1 beta for 6 hrs (reference value: 100.0%); type: cell-based; design: scale not given: the % may be the effect or the level left
[4] = target: T1, Prostaglandin G/H synthase 2 (Homo sapiens) (UniProt P35354); test: Inhibition of IL-1 beta-induced COX-2 activity in human SW982 cells assessed as enzyme activity at LD50 treated for 24 hrs prior to incubation with IL-1 beta for 6 hrs (reference value: 100.0%); type: cell-based; design: scale not given: the % may be the effect or the level left
T1 sequence (whole entry): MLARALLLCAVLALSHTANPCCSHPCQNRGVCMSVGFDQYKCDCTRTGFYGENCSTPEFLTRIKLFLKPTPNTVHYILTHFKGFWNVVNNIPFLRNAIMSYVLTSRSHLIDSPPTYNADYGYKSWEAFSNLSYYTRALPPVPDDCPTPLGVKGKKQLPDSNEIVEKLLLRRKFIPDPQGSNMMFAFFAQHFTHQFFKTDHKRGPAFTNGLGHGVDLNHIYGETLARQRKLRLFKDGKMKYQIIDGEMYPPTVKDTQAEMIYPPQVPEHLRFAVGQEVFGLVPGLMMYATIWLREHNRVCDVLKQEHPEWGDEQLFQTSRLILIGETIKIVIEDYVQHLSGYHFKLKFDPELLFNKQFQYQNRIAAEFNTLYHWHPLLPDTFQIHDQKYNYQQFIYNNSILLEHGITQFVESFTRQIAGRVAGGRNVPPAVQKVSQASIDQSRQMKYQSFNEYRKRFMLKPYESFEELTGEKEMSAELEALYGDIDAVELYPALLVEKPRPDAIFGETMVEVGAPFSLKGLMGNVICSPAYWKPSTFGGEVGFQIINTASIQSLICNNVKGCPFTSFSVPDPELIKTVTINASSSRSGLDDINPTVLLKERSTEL

Compound	inhibition (Rattus norvegicus [1])	inhibition (Rattus norvegicus [2])	CC50 at 24 h [3]	Activity (SW982)	Activity [4]
COC(=O)[C@]1(C)[C@@H]2CC[C@]3(C)[C@H](C(=O)C=C4[C@@H]5[C@@H](C)[C@H](C)CC[C@]5(C)CC[C@]43C)[C@@]2(C)CC[C@H]1OC(=O)Cc1c(C)n(C(=O)c2ccc(Cl)cc2)c2ccc(OC)cc12	Active	–	–	–	–
CC(C)Cc1ccc(C(C)C(=O)O)cc1 (configuration not stated) [IBUPROFEN]	Active	Active	93 µM	–	–
COC(=O)[C@]1(C)[C@@H]2CC[C@]3(C)[C@H](C(=O)C=C4[C@@H]5[C@@H](C)[C@H](C)CC[C@]5(C)CC[C@]43C)[C@@]2(C)CC[C@H]1OC(=O)C(C)c1ccc2cc(OC)ccc2c1 (mixture of isomers)	Active	–	–	–	–
COC(=O)[C@]1(C)[C@@H]2CC[C@]3(C)[C@H](C(=O)C=C4[C@@H]5[C@@H](C)[C@H](C)CC[C@]5(C)CC[C@]43C)[C@@]2(C)CC[C@H]1OC(=O)C(C)c1ccc(CC(C)C)cc1 (mixture of isomers)	Active	Active	40.6 µM	60.2%	27.7%
COC(=O)[C@]1(C)[C@@H]2CC[C@]3(C)[C@H](CC=C4[C@@H]5[C@@H](C)[C@H](C)CC[C@]5(C)CC[C@]43C)[C@@]2(C)CC[C@H]1OC(=O)Cc1c(C)n(C(=O)c2ccc(Cl)cc2)c2ccc(OC)cc12	Active	–	–	–	–
COC(=O)[C@]1(C)[C@@H]2CC[C@]3(C)[C@H](CC=C4[C@@H]5[C@@H](C)[C@H](C)CC[C@]5(C)CC[C@]43C)[C@@]2(C)CC[C@H]1OC(=O)Cc1ccccc1Nc1c(Cl)cccc1Cl	Active	–	–	–	–
COC(=O)[C@]1(C)[C@@H]2CC[C@]3(C)[C@H](CC=C4[C@@H]5[C@@H](C)[C@H](C)CC[C@]5(C)CC[C@]43C)[C@@]2(C)CC[C@H]1OC(=O)C(C)c1ccc(CC(C)C)cc1 (mixture of isomers)	Active	Active	62.6 µM	65.8%	30.2%
COC(=O)[C@]1(C)[C@@H]2CC[C@]3(C)[C@H](CC=C4[C@@H]5[C@@H](C)[C@H](C)CC[C@]5(C)CC[C@]43C)[C@@]2(C)CC[C@H]1OC(=O)C(C)c1ccc2cc(OC)ccc2c1 (mixture of isomers)	Active	–	–	–	–
C[C@H]1[C@H](C)CC[C@]2(C)CC[C@]3(C)C(=CC[C@@H]4[C@@]5(C)CC[C@@H](O)[C@](C)(C(=O)O)[C@@H]5CC[C@]43C)[C@H]12 [BOSWELLIC ACID]	–	–	70.2 µM	44%	50.8%
COC(=O)[C@]1(C)[C@@H]2CC[C@]3(C)[C@H](C(=O)C=C4[C@@H]5[C@@H](C)[C@H](C)CC[C@]5(C)CC[C@]43C)[C@@]2(C)CC[C@H]1OC(=O)Cc1ccccc1Nc1c(Cl)cccc1Cl	Active	–	–	–	–
C[C@H]1[C@H](C)CC[C@]2(C)CC[C@]3(C)C(=CC(=O)[C@@H]4[C@@]5(C)CC[C@@H](O)[C@](C)(C(=O)O)[C@@H]5CC[C@]43C)[C@H]12 [11-KETO BOSWELLIC ACID]	Active	Active	82 µM	72.7%	27.4%
